pEC50, pIC50: −log10 of the molar value. Activity calls are given as the source filed them.

In one data set the test system is Adipocyte. Nature of the data set: Inhibition of lipolysis in IBMX-stimulated human adipocytes assessed as glycerol release after 5 hrs. Format: functional, cell-based.
The target in a further data set is Cytochrome P450 2C9 (Homo sapiens, UniProt P11712). Nature of the data set: Inhibition of CYP2C9 in human liver microsomes using diclofenac substrate. Format: ADME, Microsome. For orientation: Liver microsomes are a subcellular fraction often used to study metabolism.
Data set [1] is described as follows: Oral bioavailability in C57BL/6 mouse at 2 mg/kg. Format: ADME, organism-based. Conditions: in vivo.
Data set [2] is described as follows: Plasma clearance in C57BL/6 mouse at 1 mg/kg, iv or 2 mg/kg, po. Format: ADME, organism-based.
Data set [3] in a line: Volume of distribution at steady state in C57BL/6 mouse at 1 mg/kg, iv or 2 mg/kg, po. Format: ADME, organism-based. Conditions: in vivo, read-out: Vdss.
A short description of data set [4]: Cmax in C57BL/6 mouse at 2 mg/kg, po. Format: ADME, organism-based. The arrangement: dose 2 mg/kg, route oral. The settings on record: in vivo.
Data set [5] in a line: Half life in C57BL/6 mouse at 1 mg/kg, iv or 2 mg/kg, po. Format: ADME, organism-based. The settings on record: in vivo.
Data set [6] relates to Rattus norvegicus. As to the kind of experiment: Reduction in free fatty acid level in 18 hrs fasted po dosed Sprague-Dawley rat. Format: functional, organism-based.
Data set [7] relates to Rattus norvegicus. As to the kind of experiment: Plasma concentration in Sprague-Dawley rat at 1 mg/kg, sc. Conditions: read-out: Cp, in vivo.
Data set [8] has as its system Rattus norvegicus. As to the kind of experiment: Toxicity in Sprague-Dawley rat assessed as plasma concentration at threshold dose for vasodilation at 1 mg/kg, sc. Conditions: read-out: Activity, in vivo.
For a further data set, the target named is T1, Cytochrome P450 2C8 (Homo sapiens, UniProt P10632).
T1 sequence (P10632 whole entry): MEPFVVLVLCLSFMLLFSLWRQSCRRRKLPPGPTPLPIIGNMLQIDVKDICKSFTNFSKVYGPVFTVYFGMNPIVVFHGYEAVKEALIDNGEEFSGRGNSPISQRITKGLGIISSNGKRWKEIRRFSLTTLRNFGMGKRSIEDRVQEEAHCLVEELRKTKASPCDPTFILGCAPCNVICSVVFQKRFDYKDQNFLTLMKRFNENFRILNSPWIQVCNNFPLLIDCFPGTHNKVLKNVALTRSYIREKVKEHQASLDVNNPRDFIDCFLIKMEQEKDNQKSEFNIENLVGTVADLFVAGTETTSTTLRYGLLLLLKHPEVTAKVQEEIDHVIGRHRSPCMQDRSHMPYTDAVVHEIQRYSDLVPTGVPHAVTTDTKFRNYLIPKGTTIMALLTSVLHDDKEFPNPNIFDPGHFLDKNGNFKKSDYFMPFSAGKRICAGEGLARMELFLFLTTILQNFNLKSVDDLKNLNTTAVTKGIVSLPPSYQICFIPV
As to the kind of experiment: Inhibition of CYP2C8 in human liver microsomes using montelukast substrate. Format: ADME, Microsome.

Data set [9] has as its system Rattus norvegicus. Nature of the data set: Reduction in free fatty acid level in 18 hrs fasted Sprague-Dawley rat at 100 mg/kg, po. Format: functional, organism-based. The arrangement: dose 100 mg/kg.
Data set [10] concerns Rattus norvegicus. As to the kind of experiment: Toxicity in Sprague-Dawley rat assessed as induction of intense flushing by measuring blood perfusion change by Doppler flometry at 100 mg/kg, sc. Format: organism-based. The arrangement: dose 100 mg/kg, route subcutaneous. Conditions: in vivo.
The subject of data set [11] is Rattus norvegicus. Nature of the data set: Plasma concentration in Sprague-Dawley rat at 100 mg/kg, sc. Format: ADME, organism-based. The arrangement: dose 100 mg/kg, route subcutaneous. Conditions: in vivo.
Data set [12] can be described thus: Therapeutic index, ratio of plasma concentration at threshold dose for vasodilation to IC50 for free fatty acid reduction in Sprague-Dawley rat. Format: cell-free. The settings on record: read-out: TI.
The test system of data set [13] is Rattus norvegicus. Nature of the data set: Toxicity in Sprague-Dawley rat assessed as plasma concentration at threshold dose for vasodilation at 100 mg/kg, sc. Format: organism-based. The settings on record: in vivo, read-out: Activity. More on the design: dose 100 mg/kg, route subcutaneous.
Data set [14] deals with Hydroxycarboxylic acid receptor 2 (Rattus norvegicus, UniProt Q80Z39). As to the kind of experiment: Agonist activity at rat GPR109A expressed by [35S]GTPgammaS binding assay. Format: functional. (GTPγS resists hydrolysis and so accumulates on activated G proteins.)
Hydroxycarboxylic acid receptor 2, sequence (Q80Z39 whole entry): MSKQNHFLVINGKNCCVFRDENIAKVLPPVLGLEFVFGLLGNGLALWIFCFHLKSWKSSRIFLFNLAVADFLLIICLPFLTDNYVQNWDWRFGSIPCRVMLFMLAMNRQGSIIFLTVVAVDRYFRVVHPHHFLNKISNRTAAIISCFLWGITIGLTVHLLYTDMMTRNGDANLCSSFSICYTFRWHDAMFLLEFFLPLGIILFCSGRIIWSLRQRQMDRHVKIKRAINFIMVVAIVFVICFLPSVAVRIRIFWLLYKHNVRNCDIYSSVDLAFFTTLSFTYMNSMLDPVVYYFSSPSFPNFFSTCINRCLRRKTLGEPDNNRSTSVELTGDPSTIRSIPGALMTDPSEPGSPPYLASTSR

Cytochrome P450 2C9, sequence (P11712 whole entry): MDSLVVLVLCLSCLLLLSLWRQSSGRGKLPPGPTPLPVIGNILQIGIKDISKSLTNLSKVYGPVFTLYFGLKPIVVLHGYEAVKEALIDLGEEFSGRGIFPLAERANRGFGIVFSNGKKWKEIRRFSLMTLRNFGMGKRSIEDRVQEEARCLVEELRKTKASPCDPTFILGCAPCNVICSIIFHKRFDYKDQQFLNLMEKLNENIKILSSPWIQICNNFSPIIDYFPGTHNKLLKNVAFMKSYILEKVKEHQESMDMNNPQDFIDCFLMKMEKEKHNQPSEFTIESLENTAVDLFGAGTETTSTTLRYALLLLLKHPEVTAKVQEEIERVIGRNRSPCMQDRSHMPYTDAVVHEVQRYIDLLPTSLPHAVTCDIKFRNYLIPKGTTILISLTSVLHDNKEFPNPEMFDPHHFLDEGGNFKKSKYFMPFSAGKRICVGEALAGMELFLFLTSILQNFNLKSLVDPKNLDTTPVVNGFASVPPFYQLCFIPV

With `O=C(CCc1nnn2c1ccc1cc(O)ccc12)Nc1ccccc1C(=O)O`, the pIC50 in the data set on Adipocyte is 7.70; on Cytochrome P450 2C9, 5.82. In data set [1], this compound yielded a bioavailability of 6%. The clearance in [2] was determined as 7 mL/min/kg. Besides, the Vd in [3] stood at 0.95 L/kg. In addition, the maximum concentration (Cmax) in [4] turned out to be 170 nM. This compound had a half-life in [5] of 1.7 h.
Turning to `O=C(O)c1cccnc1` [NIACIN], the negative logarithm of the IC50 (pIC50) is 7.15 with Adipocyte and 5.30 with Rattus norvegicus [6]. The concentration with Rattus norvegicus [7] and with Rattus norvegicus [8] was 7600 nM each time.
In the case of `O=C(CCc1noc2c1Cc1cc(O)ccc1-2)Nc1ccccc1C(=O)O`, the pIC50 against Cytochrome P450 2C8 was 4.70; at Cytochrome P450 2C9, 5.07.
On Cytochrome P450 2C9, `Cn1c(=O)c2cc(O)ccc2c2ccc(CCC(=O)Nc3ccccc3C(=O)O)cc21` had a pIC50 of 5.33. For the same compound, the bioavailability in data set [1] worked out at 10%. Moreover, in data set [2], the clearance was 1.4 mL/min/kg. In addition, in data set [3], the Vd amounted to 0.26 L/kg. In addition, in [4], the peak level (Cmax) was 1260 nM. This compound showed a half-life in [5] of 2.3 h.
As to `O=C(CCc1[nH]nc2c1ccc1cc(O)ccc12)Nc1ccccc1C(=O)O`, the negative logarithm of the IC50 (pIC50) in the data set on Adipocyte is 7.22; against Cytochrome P450 2C8, 5.24; on Cytochrome P450 2C9, 5.04.
For the compound `O=C(CCc1cnn2c1CCc1cc(O)ccc1-2)Nc1ccccc1C(=O)O`, the pIC50 in the data set with Adipocyte is 6.96; on Cytochrome P450 2C8, 4.96; on Cytochrome P450 2C9, 4.74; in the data set on Rattus norvegicus [6] it was 4.22. This compound also came in with a bioavailability in data set [1] of 17%. In data set [2], this compound registered a clearance of 12 mL/min/kg. Moreover, the Vd in data set [3] is 1.8 L/kg. Further, the peak level in data set [4] (Cmax) was 350 nM. In data set [5], this compound showed a half-life of 2.9 h. Besides, the outcome in the data set on Rattus norvegicus [9] was Active. In the data set on Rattus norvegicus [10], the Activity result is reported as “Not Active”. In addition, the concentration in the data set on Rattus norvegicus [11] and in the data set with Rattus norvegicus [13] was 500000 nM in each case. Besides, the selectivity ratio in data set [12] amounted to 8. The negative-log EC50 (pEC50) in data set [14] was 5.57.
For the compound `O=C(CCc1[nH]nc2c1CCc1cc(O)ccc1-2)Nc1ccccc1C(=O)O`, the values for the negative logarithm of the IC50 (pIC50) in the data set with Adipocyte, at Cytochrome P450 2C8 and against Cytochrome P450 2C9 were 6.55, 4.64 and 4.59, respectively. This compound had a bioavailability in [1] of 1.4%. This compound also came in with a clearance in [2] of 2.4 mL/min/kg. Also, the Vd in data set [3] was determined as 0.44 L/kg. The same compound had a Cmax in data set [4] of 73 nM. In [5], this compound gave a half-life of 2.1 h.
Take `O=C(CCc1noc2c1ccc1cc(O)ccc12)NC1=C(C(=O)O)CCCC1`: at Cytochrome P450 2C9, the negative-log IC50 (pIC50) is 4.92.
Still for that read-out and setting: for `O=C(CCc1cn2c(n1)sc1ccccc12)Nc1ccccc1C(=O)O` the value was 5.36; for `Cn1nc(CCC(=O)Nc2ccccc2C(=O)O)c2c1-c1ccc(O)cc1CC2`, 4.77.
`O=C(CCc1noc2c1CCc1cc(O)ccc1-2)NC1=C(C(=O)O)CCC1`: the pIC50 against Cytochrome P450 2C8 and on Cytochrome P450 2C9 was 4.33 throughout. For the same compound, the bioavailability in data set [1] was 7.5%. For the same compound, the clearance in data set [2] was 4.1 mL/min/kg. Further, the Vd in data set [3] was 0.2 L/kg. In addition, the Cmax in [4] is 1830 nM. The half-life in data set [5] is 1.9 h.
Turning to `O=C(CCc1noc2c1CCc1cc(O)ccc1-2)Nc1ccccc1C(=O)O`, the negative-log IC50 (pIC50) against Cytochrome P450 2C8 is 5.23; against Cytochrome P450 2C9, 5.66. For the same compound, in data set [1], the bioavailability amounted to 8.2%. In data set [2], the clearance worked out at 9.7 mL/min/kg. For the same compound, the Vd in data set [3] was determined as 1.1 L/kg. The same compound gave a Cmax in [4] of 620 nM. Besides, the half-life in data set [5] was 1.8 h.
In the case of `O=C(CCc1noc2c1ccc1c(F)c(O)ccc12)NC1=C(C(=O)O)CCCC1`, the negative logarithm of the IC50 (pIC50) against Cytochrome P450 2C9 is 5.70.
Take `O=C(CCc1cnn2c1ccc1cc(O)ccc12)NC1=C(C(=O)O)CCCC1`: the figures for the pIC50 with Adipocyte and against Cytochrome P450 2C9 were 7.22 and 4.72, respectively.
`O=C(CCc1ccc2c(ccc3[nH]ncc32)c1)Nc1ccccc1C(=O)O` had a pIC50 against Cytochrome P450 2C9 above 6.85. In addition, in data set [1], the bioavailability was 24%. In [2], this compound yielded a clearance of 0.6 mL/min/kg. In addition, the Vd in data set [3] was 0.19 L/kg. In addition, the Cmax in data set [4] is 3900 nM. The same compound had a half-life in data set [5] of 3.5 h.
In the case of `O=C(CCc1noc2c1ccc1c(Cl)c(O)ccc12)NC1=C(C(=O)O)CCCC1`, the negative-log IC50 (pIC50) against Cytochrome P450 2C9 is 5.82.
With `O=C(CCc1cn2c(n1)sc1cc(O)ccc12)Nc1ccccc1C(=O)O`, in the data set with Adipocyte, the negative logarithm of the IC50 (pIC50) is 6.70.
As to `O=C(CCc1noc2c1CCc1cc(O)ccc1-2)NC1=C(C(=O)O)CCCC1`, the negative logarithm of the IC50 (pIC50) on Cytochrome P450 2C8 is 4.36; at Cytochrome P450 2C9, 4.96.
On to `O=C(CCc1cn2c(n1)sc1cc(O)ccc12)NC1=C(C(=O)O)CCC1`, for which the pIC50 against Cytochrome P450 2C9 was 4.92.
Turning to `O=C(CCc1noc2c1ccc1cc(O)ccc12)Nc1ccccc1C(=O)O`, the pIC50 in the data set on Adipocyte was 6.82; against Cytochrome P450 2C9, 6.00.
In the case of `O=C(CCc1cn2c(n1)sc1cc(O)ccc12)NC1=C(C(=O)O)CCCC1`, the results for the pIC50 with Adipocyte and against Cytochrome P450 2C9 were 5.59 and 4.92, respectively. This compound also came in with a bioavailability in [1] of 25%. In addition, in [2], the clearance came to 0.9 mL/min/kg. For the same compound, the Vd in data set [3] was 0.32 L/kg. Further, in data set [4], the highest level (Cmax) was 3800 nM. The compound also had a half-life in data set [5] of 4.4 h.

What is called pIC50 is the negative decadic logarithm of the IC50, by convention in mol/L. The term bioavailability denotes dose-corrected exposure relative to a reference, in per cent. A lower bioavailability goes with little systemic uptake. As a reminder, the Cmax is the peak of the concentration-time curve. By half-life is commonly meant the time in which the quantity being followed falls by half. Low readings indicate rapid decline, high ones slow decline. The pEC50 is the EC50 on a negative log10 scale, so that one unit is a factor of ten. Low values mean a large EC50, high ones a small EC50.

Source of the values: ChEMBL document CHEMBL1154005 (J Med Chem, 2009).
